Reference: US5399487A, “6-peptidylamino-1-naphthalenesulfonamides useful as fluorogenic proteolytic enzyme substrates” (Haematologic Technologies, Inc., priority 1993, dated 1995)
Each block holds one compound with its values, some of them ahead of it.

Tests used:
Format in all cases: biochemical
thrombin (IIa) = target: T1, thrombin (IIa) (Homo sapiens, UniProt P00734); test: Fluorogenic enzyme assay (Example 5); parameters: key to Kinetic constants, IIa (symbol b): slow substrate hydrolysis, no kinetic constants calculated
T1 construct: 0.5 nM human thrombin (IIa)
Protocol: (§1) Enzyme assays (except factor VIIa assays, see below) were conducted in 20 mM Tris, 150 mM NaCl, pH 7.4 (TBS) at room temperature (22° C.). The final volume for all reaction mixtures was 2.0 ml. Fluorogenic substrates were dissolved in DMSO to a stock concentration of 10 mM. The 10 mM stock solution was diluted in TBS to the final working concentration prior to all assays. Enzyme was added to mixtures containing buffer components and substrate and the initial rate of substrate hydrolysis was measured as the change in fluorescent intensity over time, corresponding to the generation of the particular 6-amino-1-naphthalenesulfonamide fluorophore from the provided substrate. Quantitation of substrate hydrolysis was accomplished by establishing a standard curve from the appropriate fluorescent moiety. Fluorescence was monitored (continuously or discontinuously) using a Perkin Elmer fluorescence spectrophotometer, model MPF-44A, equipped with a standard chart recorder. The fluorophore was detected using monochrometers set at an excitation wavelength of 352 nm and an emission wavelength of 470 nm. Light scattering artifacts were minimized using a 399 nm cut off filter in the emission light beam.
(§2) The kinetic constants of substrate hydrolysis were determined using the non-linear least squares regression analysis program ENZFITTER (Cambridge, UK). This program was used to iteratively fit initial rates of substrate hydrolysis to the Michaelis-Menten equation and the kinetic constants of substrate hydrolysis (Km) and (kcat) were calculated.

factor Xa = factor Xa (Homo sapiens, UniProt P00742); test: Fluorogenic enzyme assay (Example 5); parameters: key to Kinetic constants, Xa (symbol b): slow substrate hydrolysis, no kinetic constants calculated; details: for TIME TO 10% HYDROLYSIS (HOURS), Xa: 100 nM enzyme (footnote b)
Sequence of factor Xa (P00742 235-488 limits assumed): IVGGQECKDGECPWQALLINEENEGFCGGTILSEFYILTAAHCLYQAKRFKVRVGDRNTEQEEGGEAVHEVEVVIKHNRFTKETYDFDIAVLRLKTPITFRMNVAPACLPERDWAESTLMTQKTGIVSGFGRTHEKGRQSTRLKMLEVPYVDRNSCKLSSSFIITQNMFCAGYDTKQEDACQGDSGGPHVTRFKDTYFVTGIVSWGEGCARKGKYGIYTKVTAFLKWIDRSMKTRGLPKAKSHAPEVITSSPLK
Sequence of factor Xa (P00742 41-179 limits assumed): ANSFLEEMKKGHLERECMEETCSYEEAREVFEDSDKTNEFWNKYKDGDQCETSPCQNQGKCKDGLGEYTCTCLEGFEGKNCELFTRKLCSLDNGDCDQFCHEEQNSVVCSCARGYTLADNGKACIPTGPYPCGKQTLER
Protocol: as §1, §2

[1] = target: activated protein C (APC) (Homo sapiens, UniProt P04070); test: Fluorogenic enzyme assay (Example 5); parameters: key to Hydrolysis kinetic constants, APC (symbol b): Slow substrate hydrolysis, no kinetic constants calculated
Sequence of activated protein C (APC) (P04070 212-461 limits assumed): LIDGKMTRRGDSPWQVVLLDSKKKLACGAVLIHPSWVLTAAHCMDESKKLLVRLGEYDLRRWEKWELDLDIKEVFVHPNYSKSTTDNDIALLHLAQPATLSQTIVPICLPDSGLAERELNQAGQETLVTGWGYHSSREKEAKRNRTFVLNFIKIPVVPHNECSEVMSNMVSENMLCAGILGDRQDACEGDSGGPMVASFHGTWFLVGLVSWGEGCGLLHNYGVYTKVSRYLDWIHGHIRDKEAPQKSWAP
Sequence of activated protein C (APC) (P04070 43-197 limits assumed): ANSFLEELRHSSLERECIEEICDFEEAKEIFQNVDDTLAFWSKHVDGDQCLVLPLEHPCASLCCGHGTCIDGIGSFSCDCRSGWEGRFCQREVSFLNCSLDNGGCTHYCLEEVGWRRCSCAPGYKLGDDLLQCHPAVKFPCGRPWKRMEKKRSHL
Protocol: as §1, §2

plasmin (Plm) = plasmin (Plm) (Homo sapiens, UniProt P00747); test: Fluorogenic enzyme assay (Example 5); details: substrate 1 μM; for TIME TO 10% HYDROLYSIS (HOURS), Plm: 100 nM enzyme (footnote b)
Sequence of plasmin (Plm) (P00747 581-810 limits assumed, species assumed): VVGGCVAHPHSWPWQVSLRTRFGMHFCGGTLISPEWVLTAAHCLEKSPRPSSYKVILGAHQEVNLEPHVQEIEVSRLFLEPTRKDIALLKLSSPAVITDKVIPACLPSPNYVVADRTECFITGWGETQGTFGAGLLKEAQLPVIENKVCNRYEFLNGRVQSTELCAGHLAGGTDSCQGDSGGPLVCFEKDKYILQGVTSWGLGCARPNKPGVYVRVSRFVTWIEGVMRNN
Sequence of plasmin (Plm) (P00747 97-580 limits assumed, species assumed): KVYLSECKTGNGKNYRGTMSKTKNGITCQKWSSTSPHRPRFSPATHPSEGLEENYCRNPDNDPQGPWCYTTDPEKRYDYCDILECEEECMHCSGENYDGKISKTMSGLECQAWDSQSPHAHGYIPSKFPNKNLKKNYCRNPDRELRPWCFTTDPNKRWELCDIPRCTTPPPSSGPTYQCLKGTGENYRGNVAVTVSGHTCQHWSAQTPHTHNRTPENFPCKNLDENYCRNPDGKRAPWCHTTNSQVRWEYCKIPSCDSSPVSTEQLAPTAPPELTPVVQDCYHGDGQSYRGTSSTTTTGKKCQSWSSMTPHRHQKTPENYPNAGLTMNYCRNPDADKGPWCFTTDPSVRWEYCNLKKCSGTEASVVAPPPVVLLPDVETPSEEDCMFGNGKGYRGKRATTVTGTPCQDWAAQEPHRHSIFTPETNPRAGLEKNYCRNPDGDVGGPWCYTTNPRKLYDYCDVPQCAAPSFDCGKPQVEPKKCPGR
Protocol: as §1, §2

[2] = target: tissue plasminogen activator (t-PA) (Homo sapiens, UniProt P00750); test: Fluorogenic enzyme assay (Example 5); details: substrate 1 μM; for hydrolysis, t-PA (symbol d): at 100 hours, 100 nM enzyme
Sequence of tissue plasminogen activator (t-PA) (P00750 36-562, species assumed): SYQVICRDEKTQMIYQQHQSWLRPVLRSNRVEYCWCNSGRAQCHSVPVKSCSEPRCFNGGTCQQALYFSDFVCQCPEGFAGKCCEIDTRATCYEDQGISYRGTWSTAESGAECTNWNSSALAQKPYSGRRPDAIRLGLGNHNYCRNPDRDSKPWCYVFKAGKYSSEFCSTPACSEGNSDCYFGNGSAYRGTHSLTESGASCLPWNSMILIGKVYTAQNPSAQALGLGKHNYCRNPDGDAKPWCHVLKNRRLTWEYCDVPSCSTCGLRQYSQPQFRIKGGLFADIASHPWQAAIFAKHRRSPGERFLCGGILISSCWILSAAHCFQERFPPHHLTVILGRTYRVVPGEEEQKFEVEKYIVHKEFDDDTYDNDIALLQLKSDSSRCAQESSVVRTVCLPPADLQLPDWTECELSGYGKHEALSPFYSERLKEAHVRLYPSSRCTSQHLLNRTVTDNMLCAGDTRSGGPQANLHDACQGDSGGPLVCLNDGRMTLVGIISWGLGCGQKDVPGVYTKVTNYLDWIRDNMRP
Protocol: as §1, §2

urokinase (u-PA) = urokinase (u-PA) (Homo sapiens, UniProt P00749); test: Fluorogenic enzyme assay (Example 5); details: substrate 1 μM; for hydrolysis, u-PA (symbol d): at 100 hours
Protocol: as §1, §2

factor VIIa = target: T2, factor VIIa (Homo sapiens, UniProt P08709); test: Fluorogenic enzyme assay, relative hydrolysis rates (Table 8); details: at 100 hours; 10 nM enzyme, substrate 1 μM
T2 construct: directly measure the enzymatic activity of factor VIIa in the presence and absence of tissue factor and phospholipid
T2 sequence (P08709 213-466 limits assumed): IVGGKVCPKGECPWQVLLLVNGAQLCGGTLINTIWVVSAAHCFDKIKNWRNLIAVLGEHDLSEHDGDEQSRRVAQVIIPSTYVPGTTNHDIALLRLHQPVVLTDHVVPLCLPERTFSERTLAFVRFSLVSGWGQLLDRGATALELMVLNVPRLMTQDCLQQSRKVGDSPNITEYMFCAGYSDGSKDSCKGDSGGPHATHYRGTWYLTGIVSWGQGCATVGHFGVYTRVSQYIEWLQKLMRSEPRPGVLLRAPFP
T2 sequence (P08709 61-212 limits assumed): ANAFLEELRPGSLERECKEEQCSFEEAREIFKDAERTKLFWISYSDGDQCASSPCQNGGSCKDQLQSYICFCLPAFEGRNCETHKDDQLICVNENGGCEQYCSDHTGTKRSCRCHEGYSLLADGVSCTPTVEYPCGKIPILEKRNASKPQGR
Protocol: as §1
Factor VII assays were conducted in 20 mM HEPES, 150 mM NaCl, 5 mM CaCl2, pH 7.4 (HBS) at 37° C. The final volume for all reactions was 1.6 ml. 6-(Mes-D-Leu-Gly-Arg)amino-1-(N,N-diethyl)naphthalenesulfonamide was dissolved in DMSO to a stock concentration of 10 mM. This 10 mM stock solution of was diluted in HBS to final working concentration prior to all assays. For reactions involving tissue factor (TF) and phospholipid vesicles, recombinant human tissue factor was solubilized in either 0.04% n-dodecyl octaethylene glycol (C12 E8) or 0.8% octyl glucoside. The TF/n-dodecyl octaethylene glycol was then relipidated into PCPS or PC vesicles by a 30 minute incubation step as described by Lawson & Mann, J. Biol. Chem. 266: 11317-11327 (1991). TF/octyl glucoside was relipidated into PC or PCPS vesicles by a thirty minute incubation step followed by exhaustive dialysis. The final concentration of tissue factor used in the studies described here ranged from 2 to 50 nM depending on the nature of the experiment.
Fifteen minutes prior to the start of all reactions factor VIIa was added to the reaction system. This incubation period was followed by the addition of substrate (1 μM to 400 μM) to the mixture to start the reaction. In experiments designed to determine kinetic constants of substrate hydrolysis, 50 nM rVIIa was used when no tissue factor was present in the reaction system, while 0.5 nM rVIIa was used when tissue factor was present in the reaction system. The rate of substrate hydrolysis was measured by change in fluorescence over time, which corresponded with the generation of the 6-amino-1-(N,N-diethyl)naphthalenesulfonamide from the provided substrate. The kinetic constants of 6-(Mes-D-Leu-Gly-Arg)amino-1-(N,N-diethyl)naphthalenesulfonamide hydrolysis as a function of factor VIIa/tissue factor complex assembly are shown in Table 10.

factor IXa = factor IXa (Homo sapiens, UniProt P00740); test: Fluorogenic enzyme assay (Example 5); parameters: key to Kinetic constants, IXa (symbol b): slow substrate hydrolysis, no kinetic constants calculated; details: for hydrolysis, IXa (symbol d): at 100 hours, 100 nM enzyme, substrate 1 μM
Sequence of factor IXa (P00740 227-461 limits assumed): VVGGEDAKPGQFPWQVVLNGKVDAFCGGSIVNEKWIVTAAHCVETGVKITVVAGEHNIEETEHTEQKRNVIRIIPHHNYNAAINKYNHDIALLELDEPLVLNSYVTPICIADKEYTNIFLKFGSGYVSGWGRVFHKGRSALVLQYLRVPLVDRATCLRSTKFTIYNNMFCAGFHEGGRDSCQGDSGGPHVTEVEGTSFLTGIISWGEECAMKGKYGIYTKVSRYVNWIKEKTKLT
Sequence of factor IXa (P00740 47-191 limits assumed): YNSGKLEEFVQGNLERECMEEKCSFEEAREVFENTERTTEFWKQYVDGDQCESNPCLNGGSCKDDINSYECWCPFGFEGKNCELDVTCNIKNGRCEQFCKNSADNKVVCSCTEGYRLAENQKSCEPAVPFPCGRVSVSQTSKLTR
Protocol: as §1, §2

[3] = 100 nM enzyme (footnote b), substrate 1 μM
[4] = at 100 hours, 10 nM enzyme, substrate 1 μM

TIME TO 10% HYDROLYSIS (HOURS), IIa (thrombin (IIa); 10 nM enzyme, substrate 1 μM): 18 h
TIME TO 10% HYDROLYSIS (HOURS), Xa (factor Xa; substrate 1 μM): 24 h
TIME TO 10% HYDROLYSIS (HOURS), APC [1, 3]: 11 h
TIME TO 10% HYDROLYSIS (HOURS), Plm (plasmin (Plm)): 1.5 h
Compound: CN(C)S(=O)(=O)c1cccc2cc(NC(=O)[C@H](CCCNC(=N)N)NC(=O)[C@H](CCCCNC(=O)OCc3ccccc3)NC(=O)OC(C)(C)C)ccc12 [(N^α -Boc,N^.cndot. -Z)KR-ANSN(CH23)2]
hydrolysis, t-PA (symbol d) [2]: d (hydrolysis at 100 hours was less than 10%.)
hydrolysis, u-PA (symbol d) (urokinase (u-PA); 100 nM enzyme): d (hydrolysis at 100 hours was less than 10%.)
hydrolysis, VIIa (symbol d) (factor VIIa): d (hydrolysis at 100 hours was less than 10%.)
hydrolysis, IXa (symbol d) (factor IXa): d (hydrolysis at 100 hours was less than 10%.)

TIME TO 10% HYDROLYSIS (HOURS), APC [1, 3]: 8 h
TIME TO 10% HYDROLYSIS (HOURS), Plm (plasmin (Plm)): 8 h
Compound: Br.Br.Br.CN(C)S(=O)(=O)c1cccc2cc(NC(=O)[C@H](CCCNC(=N)N)NC(=O)[C@@H](N)CCCCN)ccc12 [KR-ANSN(CH3)2]
hydrolysis, IIa (symbol d) (thrombin (IIa); [4]): d (hydrolysis at 100 hours was less than 10%.)
hydrolysis, Xa (symbol d) (factor Xa; [4]): d (hydrolysis at 100 hours was less than 10%.)
hydrolysis, t-PA (symbol d) [2]: d (hydrolysis at 100 hours was less than 10%.)
hydrolysis, u-PA (symbol d) (urokinase (u-PA); 100 nM enzyme): d (hydrolysis at 100 hours was less than 10%.)
hydrolysis, VIIa (symbol d) (factor VIIa): d (hydrolysis at 100 hours was less than 10%.)
hydrolysis, IXa (symbol d) (factor IXa): d (hydrolysis at 100 hours was less than 10%.)

TIME TO 10% HYDROLYSIS (HOURS), IIa (thrombin (IIa); 10 nM enzyme, substrate 1 μM): 93 h
Kinetic constants, IIa (symbol b) (thrombin (IIa); Table 9): b
TIME TO 10% HYDROLYSIS (HOURS), Xa (factor Xa; substrate 1 μM): 46 h
Kinetic constants, Xa (symbol b) (factor Xa; Table 9): b
TIME TO 10% HYDROLYSIS (HOURS), APC ([1]; 10 nM enzyme, substrate 1 μM): 0.5 h
Km ([1]; Table 9): 267 µM
kcat /Km, APC ([1]; Table 9): 11600 s⁻¹ M⁻¹
kcat, APC ([1]; Table 9): 3.1 s⁻¹
TIME TO 10% HYDROLYSIS (HOURS), Plm (plasmin (Plm)): 2.5 h
TIME TO 10% HYDROLYSIS (HOURS), u-PA (urokinase (u-PA); 100 nM enzyme): 24 h
Kinetic constants, IXa (symbol b) (factor IXa; Table 9): b
Compound: Br.Br.Br.N=C(N)NCCC[C@H](NC(=O)CNC(=O)CN)C(=O)N[C@@H](CCCNC(=N)N)C(=O)Nc1ccc2c(S(=O)(=O)NC3CCCCC3)cccc2c1 [GGRR-ANSNH(cyclo-C6 H11)]
hydrolysis, t-PA (symbol d) [2]: d (hydrolysis at 100 hours was less than 10%.)
hydrolysis, VIIa (symbol d) (factor VIIa): d (hydrolysis at 100 hours was less than 10%.)
hydrolysis, IXa (symbol d) (factor IXa): d (hydrolysis at 100 hours was less than 10%.)

Km (thrombin (IIa); Table 7): 22.6 µM
kcat /Km, IIa (thrombin (IIa); Table 7): 630 s⁻¹ M⁻¹
kcat, IIa (thrombin (IIa); Table 7): 0.01 s⁻¹
Time (min) for 10% hydrolysis, IIa (thrombin (IIa); enzyme 100 nM, substrate 1 μM): 45 min
Km (factor Xa; Table 7): 91.4 µM
kcat /Km, Xa (factor Xa; Table 7): 1020 s⁻¹ M⁻¹
kcat, Xa (factor Xa; Table 7): 0.09 s⁻¹
Time (min) for 10% hydrolysis, Xa (factor Xa; enzyme 100 nM, substrate 1 μM): 15 min
Hydrolysis kinetic constants, APC (symbol b) ([1]; Table 7): b
Time (min) for 10% hydrolysis, APC ([1]; enzyme 100 nM, substrate 1 μM): 200 min
Time (min) for 10% hydrolysis, Plm (plasmin (Plm); enzyme 100 nM): 1140 min
Compound: Br.CN(C)S(=O)(=O)c1cccc2cc(NC(=O)[C@H](CCCNC(=N)N)NC(=O)OCc3ccccc3)ccc12 [(N^α -Z)ArgANSNR1 R2; CH3; CH3]
hydrolysis, t-PA (symbol N.D.) ([2]; after 24 hrs, enzyme 100 nM): N.D. (Less than 5% hydrolysis after 24 hrs.)
hydrolysis, u-PA (symbol N.D.) (urokinase (u-PA); after 24 hrs, enzyme 100 nM): N.D. (Less than 5% hydrolysis after 24 hrs.)
